The values below are quoted from earlier work in patent US8629110B2, “Kv1.3 channel blocking substances for the treatment of diseases associated with intimal hyperplasia” (priority 2008, dated 2014).

In the first data set the target is Kv1.3 channel (Homo sapiens, UniProt P22001). The following applies: Kv1.3 channel; read-out: Affinity (Kd); cited from earlier work.
Kv1.3 channel, sequence (P22001 whole entry): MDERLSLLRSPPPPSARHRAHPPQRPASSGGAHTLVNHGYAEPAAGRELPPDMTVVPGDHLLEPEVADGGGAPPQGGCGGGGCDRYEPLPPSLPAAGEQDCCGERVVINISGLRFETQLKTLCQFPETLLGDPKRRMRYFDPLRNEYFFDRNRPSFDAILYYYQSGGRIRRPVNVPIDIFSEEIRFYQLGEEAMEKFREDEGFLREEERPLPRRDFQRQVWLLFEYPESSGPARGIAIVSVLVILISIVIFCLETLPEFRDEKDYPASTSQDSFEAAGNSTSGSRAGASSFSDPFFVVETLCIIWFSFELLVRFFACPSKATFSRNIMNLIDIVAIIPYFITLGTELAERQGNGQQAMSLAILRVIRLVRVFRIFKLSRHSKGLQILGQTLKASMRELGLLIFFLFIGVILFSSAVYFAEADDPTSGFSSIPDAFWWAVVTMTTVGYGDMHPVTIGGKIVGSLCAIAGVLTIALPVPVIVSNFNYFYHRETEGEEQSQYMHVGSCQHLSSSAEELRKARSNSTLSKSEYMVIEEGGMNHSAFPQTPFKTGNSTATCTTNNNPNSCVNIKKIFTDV
Regarding `COc1cc(CNC(=O)CCCC/C=C/C(C)C)ccc1O` [Capsaicin], the dissociation constant Kd was 26 µM.
As to `CCC[C@@H](O)/C=C/C=C/C=C/C#CC#CCCCO` [Cicutotoxin], the Kd is 18 µM.
Turning to `[Co+2]` [Co^2+], the Kd is 200 µM.
For `COc1ccc([C@@H]2Sc3ccccc3N(CCN(C)C)C(=O)[C@@H]2OC(C)=O)cc1` [Diltiazem], the Kd is 27 µM.
Consider `O=C(NCC1CCCCN1)c1cc(OCC(F)(F)F)ccc1OCC(F)(F)F` (centres unmarked) [Flecainide], for which the dissociation constant Kd was 60 µM.
On to `[Hg+2]` [Hg^2+], for which the Kd is 10 µM.
Turning to `[La+3]` [La^3+], the Kd is 20 µM.
On to `O=c1cc(-c2ccc(O)c(O)c2)oc2cc(O)cc(O)c12` [Luteolin], for which the Kd is 50 µM.
`COC(=O)C1=C(C)NC(C)=C(C(=O)OC)C1c1ccccc1[N+](=O)[O-]` [Nifedipine]: the dissociation constant (Kd) was 5 µM.
Take `CCOC(=O)C1=C(C)NC(C)=C(C(=O)OC)C1c1cccc([N+](=O)[O-])c1` (centres unmarked) [Nitrendipine]: the Kd was 5 µM.
For the compound `c1ccc(C2(N3CCCCC3)CCCCC2)cc1` [Phencyclidine], the Kd was 5 µM.
Take `CC(=O)[C@H]1CC[C@H]2[C@@H]3CCC4=CC(=O)CC[C@]4(C)[C@H]3CC[C@]12C` [Progesterone]: the Kd was 30 µM.
Take `C=C[C@H]1C[N@@]2CC[C@H]1C[C@H]2[C@H](O)c1ccnc2ccc(OC)cc12` [Quinine]: the Kd was 14 µM.
In the case of `C=C(C)[C@]12C[C@@H](C)[C@@]34O[C@](Cc5ccccc5)(O[C@@H]1[C@@H]3C=C(COC(=O)Cc1ccc(O)c(OC)c1)C[C@]1(O)C(=O)C(C)=C[C@@H]41)O2` [Resiniferatoxin], the Kd is 3 µM.
In the case of `CC[N+](CC)(CC)CC` [TEA, tetraethylammonium chloride], the Kd was 10000 µM.
As for `CN1CCN(CCCN2c3ccccc3Sc3ccc(C(F)(F)F)cc32)CC1` [Trifluoperazine], the Kd is 20 µM.
In the case of `COc1ccc(CCCN2CCC(COC(c3ccccc3)c3ccccc3)CC2)cc1` [UK78282], the Kd is 0.2 µM.
For the compound `[Zn+2]` [Zn^2+], the Kd was 200 µM.
For the compound Agiotoxin-2, the dissociation constant (Kd) was 0.0002 µM.
Regarding Bunodosoma granulifera toxin, the Kd is 0.039 µM.
In the case of Buthus martensii Karsch toxin, the Kd is 0.00079 µM.
On to Charybdotoxin, for which the dissociation constant Kd was 0.003 µM.
For the compound Dendrotoxin, the Kd was 0.25 µM.
Regarding Heterometrus spinifer toxin 1, the Kd is 1.2e-05 µM.
Turning to Hongotoxin, the Kd was 8.6e-05 µM.
For Kaliotoxin, the equilibrium dissociation constant (Kd) was 0.00065 µM.
With “Maurotoxin (VSCTGSKDCYAPCRKQTGCPNAKCINKSCKCYGC; UniProt P80719 1-34, looked up)”, the Kd was 0.15 µM.
With “Noxiustoxin (TIINVKCTSPKQCSKPCKELYGSSAGAKCMNGKCKCYNN; UniProt P08815 1-39, looked up)”, the Kd is 0.001 µM.
Regarding “Odonthobthus doriae toxin 2 [Odonthobthus doriae toxin 2 (OdK2)]”, the dissociation constant (Kd) is 0.007 µM.
As for Pandinus imperator toxin 1, the Kd is 0.011 µM.
On to Pandinus imperator toxin 2, for which the Kd was 5e-05 µM.
In the case of Pandinus imperator toxin 3, the Kd is 0.0005 µM.
Turning to Parabuthus toxin 1, the Kd was 0.8 µM.
As for Parabuthus toxin 3, the Kd is 0.492 µM.
In the case of “Stichodactyla helianthus toxin [Stichodactyla helianthus toxin (ShK)]”, the Kd was 1.1e-05 µM.
For “Stichodactyla helianthus toxin—fluorescein-6-carboxylic acid [ShK-F6CA]”, the Kd is 4.8e-05 µM.

Still in this data set, the particulars now being: read-out: Affinity (Kd); cited from earlier work.
Turning to `CCCCC/N=c1\ccn(Cc2ccccc2)c2ccccc12` [CP339818], the Kd is 0.15 µM.
In the case of `C=C1C[C@@]2(O)[C@@H]3CC[C@@]4(C)[C@@H]5C=CC(=O)OC[C@]5(C(C)OC(C)=O)[C@@H](OC(C)=O)[C@@H](OC(C)=O)[C@@H]4[C@@]3(C)[C@H](OC(C)=O)[C@H](OC(C)=O)[C@@]2(C)C2(C(=O)OC)O[C@H]12` (some centres unmarked) [Correolide], the dissociation constant Kd was 0.09 µM.

As usually defined, the Kd is the equilibrium constant for the complex coming apart.
